In US6277834A, “Agents for relieving side effects of adrenal cortex hormone” (Senju Pharmaceutical Co. Ltd., priority 1998, dated 2001):
Where a name gives a salt, the structure may show the parent alone.

Legend:
[1] = Body weight, thymus and spleen weight in hairless mice after repeated topical application (reduction of side effects of an adrenocortical hormone); details: EPC-K (0.5%) administered concurrently with betamethasone valerate (0.012%), two weeks
Procedure: A test was carried out to examine the effect of the present compound to reduce side effects of an adrenocortical hormone.
(§1) 0.012% betamethasone valerate (dissolved in methanol).
0.012% betamethasone valerate +0.5% EPC-K (dissolved in methanol).
10-week old female HR-1 hairless mice purchased from SLC Japan were used for the test. One hundred μl of the test materials were applied to the respective mice on the whole area of their back skin. This procedure was repeated once a day for two weeks, and then the body weight and the weight of the thymus and the spleen were determined.

[2] = tested on: croton oil-induced edema of the right auricles of the mice; experiment: Croton oil-induced ear edema in mice (antiinflammatory effect); format: in vivo, ICR mice (10-week old male)
Procedure: A test was performed for examining antiinflammatory effect observed by concurrent use of the present compound and an adrenocortical hormone. In addition, dose-response test was carried out for the adrenocortical hormone.
as §1
0.5% EPC-K (dissolved in methanol).
Twenty μl of croton oil (6%) dissolved in acetone was applied on the outer surface of the right auricles of the mice to induce edema. Fifteen minutes later, 20 μl of one of the test materials was applied to each of the right auricles.
Four hours after the application of the test materials, the thickness of the right auricles of the mice were measured using a dial thickness gauge and edema rates were determined by comparing their thickness with that before induction.

Acute toxicity (LD50) = details: in vivo, rat
[3] = Table 4, 4 h after 20 μl topical, 0.5% EPC-K, 0.012% betamethasone valerate, or both, mean ± S.D. (n = 23-27), methanol 116.1 ± 23.3
[4] = Table 4, edema inhibition 4 h after 20 μl topical, 0.5% EPC-K, 0.012% betamethasone valerate, or both, n = 23-27

Compound	atrophy of spleen (by betamethasone valerate) [1]	atrophy of thymus (by betamethasone valerate) [1]	body weight reduction (by betamethasone valerate) [1]	Edema rate(%) [2, 3]	Inhibition rate(%) [2, 4]	LD50 (Acute toxicity (LD50); iv)	LD50 (Acute toxicity (LD50); po)	Edema rate(%) ([2]; Table 5 dose-response, 0.012% betamethasone valerate, 4 h, mean ± S.D. (n = 8-9), methanol 138.8 ± 18.5)	Inhibition rate(%) ([2]; Table 5 dose-response, 0.012% betamethasone valerate, 4 h, n = 8-9)	Edema rate(%) ([2]; Table 5 dose-response, 0.040% betamethasone valerate, 4 h, mean ± S.D. (n = 8-9), methanol 138.8 ± 18.5)	Inhibition rate(%) ([2]; Table 5 dose-response, 0.040% betamethasone valerate, 4 h, n = 8-9)	Edema rate(%) ([2]; Table 5 dose-response, 0.12% betamethasone valerate, 4 h, mean ± S.D. (n = 8-9), methanol 138.8 ± 18.5)	Inhibition rate(%) ([2]; Table 5 dose-response, 0.12% betamethasone valerate, 4 h, n = 8-9)	concentration of betamethasone valerate that would give an effect comparable to 0.012% betamethasone valerate plus 0.5% EPC-K ([2]; calculated from the dose-response test (Table 5))
Cc1c(C)c2c(c(C)c1OP(=O)(O)OC1=C(O)[C@@H]([C@@H](O)CO)OC1=O)CCC(C)(CCCC(C)CCCC(C)CCCC(C)C)O2 (mixture of isomers) [EPC-K, potassium salt of phosphodiester of L-ascorbic acid and DL-α-tocopherol]	suppressed	suppressed	suppressed	109.1 ± 26.3%	6.0%	> 100 mg/kg	> 5000 mg/kg	–	–	–	–	–	–	–
CCCCC(=O)O[C@]1(C(=O)CO)[C@@H](C)C[C@H]2[C@@H]3CCC4=CC(=O)C=C[C@]4(C)[C@@]3(F)[C@@H](O)C[C@@]21C [Betamethasone valerate, betamethasone valerate]	–	–	–	87.3 ± 21.7%	27.9%	–	–	101.6 ± 15.3%	26.8%	86.5 ± 30.3%	37.7%	52.8 ± 13.3%	62.0%	0.088%
